Assay results from patent publication US20210330611A1, “THERAPY FOR NEUROLOGICAL DISEASES/DISORDERS” (priority 2020, published 2021).
Where a name gives a salt, the structure may show the parent alone. Read-outs that look alike come from different tables or passages of the source.

Columns and labels:
[1] = tested on: fibrin-induced microglia activation; test: Image-based assay of fibrin-induced microglia activation (HTS and dose response); assay type: cell-based, rat; conditions: for inhibition at 10 µM: Rattus norvegicus, Microglia, read-out: Fibrin % inhibition
primary rat microglia [2] = tested on: primary rat microglia;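 for Fibrin % cell toxicity: share of dead cells sized under 150 µm2 at 10 µM in fibrin-stimulated microglia HTS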
primary rat microglia [3] = tested on: primary rat microglia; remark: listed apart in the source;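 for Fibrin % cell toxicity: share of dead cells sized under 150 µm2 at 10 µM in fibrin-stimulated microglia HTS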
[4] = tested on: LPS-induced microglia activation; test: Image-based assay of LPS-induced microglia activation (HTS and dose response); assay type: cell-based, rat; conditions: for inhibition at 10 µM: Rattus norvegicus, Microglia, read-out: LPS % inhibition
[5] = tested on: fibrin- and LPS-induced microglia activation; test: cells; assay type: cell-based, rat
[6] = primary microglia HTS, 10 μM, fibrin-stimulated, cell size >800 μm^2 as marker of activation
[7] = primary microglia HTS, 10 μM, LPS-stimulated, cell size >800 μm^2 as marker of activation
[8] = HTS of 1907 compounds, quadrant by fibrin and LPS inhibition
[9] = primary microglia HTS, fibrin stimulation, compounds at 10 μM
[10] = primary microglia HTS, LPS stimulation, compounds at 10 μM
[11] = quadrant by fibrin and LPS inhibition, HTS at 10 μM
[12] = primary microglia HTS, fibrin stimulation, increased cell size (>800 μm^2) as marker of activation
[13] = 48 h, primary microglia HTS, LPS stimulation, increased cell size (>800 μm^2) as marker of activation
[14] = quadrant by fibrin and LPS inhibition in HTS of 1907 compounds

## CCC(COC(=O)c1cc(OC)c(OC)c(OC)c1)(c1ccccc1)N(C)C (stereo not drawn) [Trimebutine]
[1]; [6]
  inhibition at 10 µM: -11%
Primary rat microglia [2]; rat
  LPS % cell toxicity: 0%
Primary rat microglia [3]; rat
  Fibrin % cell toxicity: 1%
[4]; [7]
  inhibition at 10 µM: 13%
[5]; [8]
  Quadrant (FIG. 5b): Q4

## CC[C@H]1OC(=O)[C@H](C)C(=O)[C@H](C)[C@@H](O[C@@H]2O[C@H](C)C[C@H](N(C)C)[C@H]2O)[C@](C)(OC)C[C@@H](C)C(=O)[C@H](C)[C@H]2N(CCCCn3cnc(-c4cccnc4)c3)C(=O)O[C@]12C [Telithromycin]
[1]; [6]
  inhibition at 10 µM: 0%
Primary rat microglia [2]; rat
  LPS % cell toxicity: 0%
Primary rat microglia [3]; rat
  Fibrin % cell toxicity: 1%
[4]; [7]
  inhibition at 10 µM: 17%
[5]; [8]
  Quadrant (FIG. 5b): Q4

## O=C(O)CCCC[C@@H]1SC[C@@H]2NC(=O)N[C@@H]21 [Biotin]
[1]
  inhibition at 10 µM: 24%
Primary rat microglia [2]; rat
  LPS % cell toxicity: 0%
Primary rat microglia [3]; rat
  Fibrin % cell toxicity: 1%
[4]
  inhibition at 10 µM: 12%
[5]
  Quadrant (FIG. 5b): Q4

## Cc1cc(C(C)(C)CC(C)(C)C)ccc1OCCOCC[N+](C)(C)Cc1ccccc1.[Cl-] [Methylbenzethonium Chloride]
[1]; [9]
  Fibrin % inhibition: 105%
Primary rat microglia [2]
  LPS % cell toxicity: 10%
Primary rat microglia [3]
  Fibrin % cell toxicity: 17%
[4]; [10]
  LPS % inhibition: 108%
[5]; [11]
  Quadrant (FIG. 5b): Q2

## CN(C)c1cnccn1.O=S(=O)(O)O [Ampyzine Sulfate]
[1]; 10 µM
  Fibrin % inhibition: −18%
Primary rat microglia [2]
  LPS % cell toxicity: 1%
Primary rat microglia [3]
  Fibrin % cell toxicity: 0%
[4]; 10 µM
  LPS % inhibition: 11%
[5]
  Quadrant (FIG. 5b): Q4

## COc1ccc([C@@H]2Sc3ccccc3N(CCN(C)C)C(=O)[C@@H]2OC(C)=O)cc1 [Diltiazem Hydrochloride]
[1]; primary microglia HTS, fibrin stimulation, compounds at 10 μM, 10 µM
  Fibrin % inhibition: −5%
Primary rat microglia [2]; rat
  LPS % cell toxicity: 0%
Primary rat microglia [3]; rat
  Fibrin % cell toxicity: 0%
[4]; primary microglia HTS, LPS stimulation, compounds at 10 μM, 10 µM
  LPS % inhibition: 15%
[5]; classification by fibrin and LPS inhibition, HTS at 10 μM
  Quadrant (FIG. 5b): Q4

## CC(C)(C#N)c1cc(Cn2cncn2)cc(C(C)(C)C#N)c1 [Anastrozole]
[1]; [9]
  inhibition at 10 µM: 31%
Primary rat microglia [2]; rat
  LPS % cell toxicity: 0%
Primary rat microglia [3]; rat
  Fibrin % cell toxicity: 1%
[4]; [10]
  inhibition at 10 µM: 16%
[5]; [11]
  Quadrant (FIG. 5b): Q4

## S=P(N1CC1)(N1CC1)N1CC1 [Thiotepa]
[1]; [6]
  inhibition at 10 µM: -15%
Primary rat microglia [2]; rat
  LPS % cell toxicity: 1%
Primary rat microglia [3]; rat
  Fibrin % cell toxicity: 1%
[4]; [7]
  inhibition at 10 µM: 15%
[5]; [8]
  Quadrant (FIG. 5b): Q4

## CO/N=C(\C(=O)N[C@@H]1C(=O)N2C(C(=O)O)=C(CSc3nc(=O)c(=O)[nH]n3C)CS[C@H]12)c1csc(N)n1 [Ceftriaxone]
[1]
  inhibition at 10 µM: -16%
Primary rat microglia [2]; rat
  LPS % cell toxicity: 0%
Primary rat microglia [3]; rat
  Fibrin % cell toxicity: 1%
[4]
  inhibition at 10 µM: 12%
[5]
  Quadrant (FIG. 5b): Q4

## CCOC(=O)C1=C[C@]2(CC)CCCN3CCc4c(n1c1ccccc41)[C@@H]32 [Vinpocetine]
[1]; [6]
  inhibition at 10 µM: -19%
Primary rat microglia [2]; rat
  LPS % cell toxicity: 0%
Primary rat microglia [3]; rat
  Fibrin % cell toxicity: 0%
[4]; [7]
  inhibition at 10 µM: 0%
[5]; [8]
  Quadrant (FIG. 5b): Q4

## NCCc1ccc(O)c(O)c1 [Dopamine]
[1]
  inhibition at 10 µM: -17%
Primary rat microglia [2]; rat
  LPS % cell toxicity: 0%
Primary rat microglia [3]; rat
  Fibrin % cell toxicity: 1%
[4]
  inhibition at 10 µM: 9%
[5]
  Quadrant (FIG. 5b): Q4

## Clc1cccc(Cl)c1N=C1NCCN1 [Clonidine]
[1]
  inhibition at 10 µM: -22%
Primary rat microglia [2]; rat
  LPS % cell toxicity: 0%
Primary rat microglia [3]; rat
  Fibrin % cell toxicity: 1%
[4]
  inhibition at 10 µM: 14%
[5]
  Quadrant (FIG. 5b): Q4

## Cc1c(O)cccc1C(=O)N[C@@H](CSc1ccccc1)[C@H](O)CN1C[C@H]2CCCC[C@H]2C[C@H]1C(=O)NC(C)(C)C [Nelfinavir]
[1]; [12]
  inhibition at 10 µM: 16%
Primary rat microglia [2]; rat
  LPS % cell toxicity: 0%
Primary rat microglia [3]; rat
  Fibrin % cell toxicity: 1%
[4]; [13]
  inhibition at 10 µM: 13%
[5]; [14]
  Quadrant (FIG. 5b): Q4

## Oc1ccc(Cl)cc1 [Parachlorophenol]
[1]
  inhibition at 10 µM: 21%
Primary rat microglia [2]; rat
  LPS % cell toxicity: 0%
Primary rat microglia [3]; rat
  Fibrin % cell toxicity: 0%
[4]; 48 h
  inhibition at 10 µM: 15%
[5]
  Quadrant (FIG. 5b): Q4

## COc1cccc2c1C(=O)c1c(O)c3c(c(O)c1C2=O)C[C@@](O)(C(C)=O)C[C@@H]3O[C@H]1C[C@H](N)[C@H](O)[C@H](C)O1 [Daunorubicin]
[1]; [12]
  inhibition at 10 µM: 116%
Primary rat microglia [2]; rat
  LPS % cell toxicity: 57%
Primary rat microglia [3]; rat
  Fibrin % cell toxicity: 77%
[4]; [13]
  inhibition at 10 µM: 114%
[5]; [14]
  Quadrant (FIG. 5b): Q2
